Type in all cases: functional
Test [1] addresses Protein kinase C gamma type (Homo sapiens, UniProt P05129).
In test [2] the target is T1, Tyrosine-protein kinase JAK3 (Homo sapiens, UniProt P52333).
T1 sequence (P52333 whole entry): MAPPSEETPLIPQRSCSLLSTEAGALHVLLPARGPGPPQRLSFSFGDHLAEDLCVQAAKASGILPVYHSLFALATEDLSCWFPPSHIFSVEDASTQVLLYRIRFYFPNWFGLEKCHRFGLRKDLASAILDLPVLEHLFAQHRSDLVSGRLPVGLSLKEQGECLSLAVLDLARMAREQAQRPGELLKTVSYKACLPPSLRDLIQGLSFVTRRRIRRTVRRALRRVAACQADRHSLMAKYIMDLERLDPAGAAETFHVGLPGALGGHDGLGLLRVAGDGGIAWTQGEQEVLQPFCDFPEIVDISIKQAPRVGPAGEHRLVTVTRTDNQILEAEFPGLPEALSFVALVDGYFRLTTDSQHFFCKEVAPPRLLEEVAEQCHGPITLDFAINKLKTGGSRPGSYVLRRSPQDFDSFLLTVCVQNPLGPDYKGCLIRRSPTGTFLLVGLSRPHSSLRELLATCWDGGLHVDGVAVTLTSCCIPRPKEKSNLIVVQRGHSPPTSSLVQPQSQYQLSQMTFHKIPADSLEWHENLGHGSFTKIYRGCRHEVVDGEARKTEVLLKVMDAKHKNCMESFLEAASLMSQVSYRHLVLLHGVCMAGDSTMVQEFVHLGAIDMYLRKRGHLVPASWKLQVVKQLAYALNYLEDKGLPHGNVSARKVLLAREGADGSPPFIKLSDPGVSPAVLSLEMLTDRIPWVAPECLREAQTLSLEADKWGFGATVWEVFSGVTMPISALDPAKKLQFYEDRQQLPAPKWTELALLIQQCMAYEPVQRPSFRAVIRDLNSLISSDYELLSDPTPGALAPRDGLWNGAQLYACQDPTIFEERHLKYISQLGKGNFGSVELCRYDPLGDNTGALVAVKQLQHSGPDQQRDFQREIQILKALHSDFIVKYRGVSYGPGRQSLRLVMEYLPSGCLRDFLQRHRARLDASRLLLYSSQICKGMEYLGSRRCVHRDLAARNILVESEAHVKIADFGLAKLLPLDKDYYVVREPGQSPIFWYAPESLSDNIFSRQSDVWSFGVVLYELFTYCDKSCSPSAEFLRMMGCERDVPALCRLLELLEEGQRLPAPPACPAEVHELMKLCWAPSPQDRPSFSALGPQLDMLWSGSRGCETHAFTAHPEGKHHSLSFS

The target of test [3] is T2, Homeodomain-interacting protein kinase 4 (Homo sapiens, UniProt Q8NE63).
T2 sequence (Q8NE63 whole entry): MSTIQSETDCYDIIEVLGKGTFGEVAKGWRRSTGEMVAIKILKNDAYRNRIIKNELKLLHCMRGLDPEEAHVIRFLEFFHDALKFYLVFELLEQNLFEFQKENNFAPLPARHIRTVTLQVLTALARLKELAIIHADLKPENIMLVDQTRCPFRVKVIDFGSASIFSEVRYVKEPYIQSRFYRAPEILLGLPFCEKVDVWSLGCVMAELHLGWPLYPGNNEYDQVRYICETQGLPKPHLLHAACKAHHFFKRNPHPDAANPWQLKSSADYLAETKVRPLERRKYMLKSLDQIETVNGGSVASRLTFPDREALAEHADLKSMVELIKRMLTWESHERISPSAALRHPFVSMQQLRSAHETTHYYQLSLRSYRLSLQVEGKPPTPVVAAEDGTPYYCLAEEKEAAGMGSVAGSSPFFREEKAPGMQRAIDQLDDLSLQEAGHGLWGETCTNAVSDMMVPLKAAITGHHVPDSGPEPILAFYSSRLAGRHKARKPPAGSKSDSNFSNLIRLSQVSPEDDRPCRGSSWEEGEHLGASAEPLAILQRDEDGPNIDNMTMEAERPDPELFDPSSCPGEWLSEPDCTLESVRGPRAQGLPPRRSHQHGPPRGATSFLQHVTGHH

In test [4] the target is Mitogen-activated protein kinase kinase kinase kinase 5 (Homo sapiens, UniProt Q9Y4K4).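 Further: measured as one member of a kinome-spanning kinase panel.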
The target of test [5] is Serine/threonine-protein kinase Chk1 (Homo sapiens, UniProt O14757).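 Further: measured as one member of a kinome-wide kinase profiling panel.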
Test [6] concerns the target Ephrin type-A receptor 2 (Homo sapiens, UniProt P29317).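 Further: EPHA2 tested as one member of a kinome-wide kinase panel.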
The target of test [7] is T3, cGMP-dependent protein kinase 1 (Homo sapiens, UniProt Q13976).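 Further: value from a kinome panel screen with PRKG1 as the panel member.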
T3 sequence (Q13976 whole entry): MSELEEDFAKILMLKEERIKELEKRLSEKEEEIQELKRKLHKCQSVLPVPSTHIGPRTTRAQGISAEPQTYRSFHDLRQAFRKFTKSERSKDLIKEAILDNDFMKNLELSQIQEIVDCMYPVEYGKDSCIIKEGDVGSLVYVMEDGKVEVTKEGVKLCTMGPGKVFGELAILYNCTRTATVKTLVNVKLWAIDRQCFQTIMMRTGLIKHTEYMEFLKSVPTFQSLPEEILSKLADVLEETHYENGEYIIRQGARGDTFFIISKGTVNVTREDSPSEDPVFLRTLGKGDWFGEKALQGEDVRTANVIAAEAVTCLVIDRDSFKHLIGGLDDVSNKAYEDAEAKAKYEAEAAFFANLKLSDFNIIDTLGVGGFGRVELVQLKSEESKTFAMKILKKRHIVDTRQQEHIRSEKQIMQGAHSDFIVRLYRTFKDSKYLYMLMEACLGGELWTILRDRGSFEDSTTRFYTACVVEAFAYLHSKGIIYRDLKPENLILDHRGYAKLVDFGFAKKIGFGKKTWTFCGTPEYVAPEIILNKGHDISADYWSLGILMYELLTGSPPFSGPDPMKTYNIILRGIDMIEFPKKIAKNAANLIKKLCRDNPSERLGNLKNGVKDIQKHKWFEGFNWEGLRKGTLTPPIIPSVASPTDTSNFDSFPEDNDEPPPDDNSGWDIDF

For test [8], the target named is Calcium/calmodulin-dependent protein kinase type II subunit delta (Homo sapiens, UniProt Q13557).
For test [9], the target named is Serine/threonine-protein kinase DCLK1 (Homo sapiens, UniProt O15075).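 Further: affinity for DCLK1 (listed as DCAMKL1) measured as one member of a kinome-wide kinase profiling panel.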
Test [10] has as its target Glycogen synthase kinase-3 beta (Homo sapiens, UniProt P49841).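 Further: value comes from a broad kinome profiling panel, with GSK3B as the panel member.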
Test [11] has as its target Cell division cycle 7-related protein kinase (Homo sapiens, UniProt O00311).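 Further: value obtained from a kinome-wide kinase panel.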

SMILES strings stand for the structures. Activity calls are given as the source filed them.

What is called Ki is a measure of affinity in units of concentration, obtained from inhibition or displacement. Usually pKi stands for −log10 of the Ki, conventionally taken in molar units.

Sequence of Cell division cycle 7-related protein kinase (O00311 whole entry): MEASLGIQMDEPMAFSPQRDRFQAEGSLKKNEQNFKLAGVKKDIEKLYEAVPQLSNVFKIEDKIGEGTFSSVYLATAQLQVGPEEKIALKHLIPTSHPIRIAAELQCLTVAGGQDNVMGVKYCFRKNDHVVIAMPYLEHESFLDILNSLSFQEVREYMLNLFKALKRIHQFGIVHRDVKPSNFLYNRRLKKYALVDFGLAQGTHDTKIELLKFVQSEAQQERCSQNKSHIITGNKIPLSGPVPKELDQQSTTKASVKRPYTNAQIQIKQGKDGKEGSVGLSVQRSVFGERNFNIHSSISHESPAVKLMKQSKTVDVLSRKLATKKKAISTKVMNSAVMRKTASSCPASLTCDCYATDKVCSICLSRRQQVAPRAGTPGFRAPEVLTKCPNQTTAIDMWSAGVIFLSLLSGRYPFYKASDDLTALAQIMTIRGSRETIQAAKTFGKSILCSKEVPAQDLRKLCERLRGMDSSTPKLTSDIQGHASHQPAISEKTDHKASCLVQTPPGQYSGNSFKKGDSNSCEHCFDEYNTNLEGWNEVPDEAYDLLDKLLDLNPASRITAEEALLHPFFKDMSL
Sequence of Glycogen synthase kinase-3 beta (P49841 whole entry): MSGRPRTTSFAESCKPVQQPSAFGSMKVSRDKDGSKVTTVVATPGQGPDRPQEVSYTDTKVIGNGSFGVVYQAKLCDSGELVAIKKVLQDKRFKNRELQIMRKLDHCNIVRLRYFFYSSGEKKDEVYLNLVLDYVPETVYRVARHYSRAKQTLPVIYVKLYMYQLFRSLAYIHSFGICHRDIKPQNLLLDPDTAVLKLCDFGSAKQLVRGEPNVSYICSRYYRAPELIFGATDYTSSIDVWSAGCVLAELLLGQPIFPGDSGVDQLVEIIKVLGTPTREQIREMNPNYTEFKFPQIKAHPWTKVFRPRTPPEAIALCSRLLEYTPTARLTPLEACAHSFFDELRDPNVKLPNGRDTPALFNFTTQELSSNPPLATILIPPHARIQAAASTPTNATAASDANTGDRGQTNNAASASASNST
Sequence of Calcium/calmodulin-dependent protein kinase type II subunit delta (Q13557 whole entry): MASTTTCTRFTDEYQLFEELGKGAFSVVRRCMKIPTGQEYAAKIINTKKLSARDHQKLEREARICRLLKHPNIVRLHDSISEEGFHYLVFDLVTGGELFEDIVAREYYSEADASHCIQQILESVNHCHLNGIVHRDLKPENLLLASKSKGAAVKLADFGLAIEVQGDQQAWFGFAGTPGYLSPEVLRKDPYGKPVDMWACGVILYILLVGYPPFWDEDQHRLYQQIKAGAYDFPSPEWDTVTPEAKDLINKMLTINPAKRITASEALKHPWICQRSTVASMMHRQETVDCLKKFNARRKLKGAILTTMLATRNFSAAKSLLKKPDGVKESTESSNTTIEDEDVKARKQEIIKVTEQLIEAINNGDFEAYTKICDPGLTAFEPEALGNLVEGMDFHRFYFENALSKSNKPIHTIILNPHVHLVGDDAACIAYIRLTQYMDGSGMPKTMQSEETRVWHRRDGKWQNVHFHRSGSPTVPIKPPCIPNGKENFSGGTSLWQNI
Sequence of Mitogen-activated protein kinase kinase kinase kinase 5 (Q9Y4K4 whole entry): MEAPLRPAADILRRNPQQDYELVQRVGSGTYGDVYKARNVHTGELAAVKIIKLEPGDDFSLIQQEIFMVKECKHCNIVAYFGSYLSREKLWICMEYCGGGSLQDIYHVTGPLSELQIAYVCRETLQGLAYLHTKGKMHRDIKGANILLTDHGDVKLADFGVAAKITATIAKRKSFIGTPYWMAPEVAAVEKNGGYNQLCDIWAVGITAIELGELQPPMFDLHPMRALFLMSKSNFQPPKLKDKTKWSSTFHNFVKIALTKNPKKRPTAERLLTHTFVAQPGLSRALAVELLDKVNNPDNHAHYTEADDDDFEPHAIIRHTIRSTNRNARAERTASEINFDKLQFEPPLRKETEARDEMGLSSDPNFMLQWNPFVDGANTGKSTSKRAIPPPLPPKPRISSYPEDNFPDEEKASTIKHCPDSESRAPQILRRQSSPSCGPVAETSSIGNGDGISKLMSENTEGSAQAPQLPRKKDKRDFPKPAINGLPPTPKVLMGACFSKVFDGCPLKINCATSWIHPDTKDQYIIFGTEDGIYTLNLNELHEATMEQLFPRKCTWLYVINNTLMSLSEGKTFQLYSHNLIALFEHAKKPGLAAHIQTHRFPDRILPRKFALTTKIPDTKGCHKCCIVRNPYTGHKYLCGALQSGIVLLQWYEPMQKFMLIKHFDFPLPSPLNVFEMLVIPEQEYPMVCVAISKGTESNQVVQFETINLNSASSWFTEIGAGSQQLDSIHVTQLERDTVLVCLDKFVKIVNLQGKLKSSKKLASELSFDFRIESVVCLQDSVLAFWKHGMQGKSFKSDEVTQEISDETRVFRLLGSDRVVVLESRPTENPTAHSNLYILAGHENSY
Sequence of Serine/threonine-protein kinase Chk1 (O14757 whole entry): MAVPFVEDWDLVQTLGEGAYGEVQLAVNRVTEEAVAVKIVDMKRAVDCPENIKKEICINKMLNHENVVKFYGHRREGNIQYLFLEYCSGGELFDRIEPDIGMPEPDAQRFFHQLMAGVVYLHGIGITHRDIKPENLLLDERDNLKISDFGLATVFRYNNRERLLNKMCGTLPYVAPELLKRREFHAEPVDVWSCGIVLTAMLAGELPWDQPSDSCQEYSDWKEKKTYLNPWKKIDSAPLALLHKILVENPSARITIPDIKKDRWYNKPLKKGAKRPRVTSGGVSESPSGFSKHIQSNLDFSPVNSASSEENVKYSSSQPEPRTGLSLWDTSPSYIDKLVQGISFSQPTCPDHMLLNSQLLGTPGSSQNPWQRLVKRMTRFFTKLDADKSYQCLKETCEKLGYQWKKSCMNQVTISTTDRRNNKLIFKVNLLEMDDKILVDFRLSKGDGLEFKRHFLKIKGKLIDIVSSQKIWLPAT
Sequence of Serine/threonine-protein kinase DCLK1 (O15075 whole entry): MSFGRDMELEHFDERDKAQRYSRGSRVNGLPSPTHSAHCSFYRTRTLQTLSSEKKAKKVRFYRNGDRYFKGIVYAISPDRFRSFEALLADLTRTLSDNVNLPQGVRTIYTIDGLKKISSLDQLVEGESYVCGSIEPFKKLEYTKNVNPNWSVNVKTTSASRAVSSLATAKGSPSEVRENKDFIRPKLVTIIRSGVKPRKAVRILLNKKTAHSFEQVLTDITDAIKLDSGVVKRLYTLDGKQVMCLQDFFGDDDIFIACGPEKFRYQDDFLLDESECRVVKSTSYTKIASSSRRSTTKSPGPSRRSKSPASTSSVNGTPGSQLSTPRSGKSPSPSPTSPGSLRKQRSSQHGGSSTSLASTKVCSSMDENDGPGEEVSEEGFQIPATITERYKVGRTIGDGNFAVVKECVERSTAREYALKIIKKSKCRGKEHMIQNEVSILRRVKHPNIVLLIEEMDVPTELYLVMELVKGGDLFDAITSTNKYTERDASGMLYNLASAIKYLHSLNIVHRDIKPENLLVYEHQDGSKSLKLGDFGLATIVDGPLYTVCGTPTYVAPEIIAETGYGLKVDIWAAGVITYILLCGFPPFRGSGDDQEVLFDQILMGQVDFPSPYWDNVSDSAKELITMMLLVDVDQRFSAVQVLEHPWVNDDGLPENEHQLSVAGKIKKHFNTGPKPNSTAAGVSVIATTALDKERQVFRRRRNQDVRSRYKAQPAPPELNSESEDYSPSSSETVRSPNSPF

Take `NC(=O)c1cc(-c2ccnc(N)n2)[nH]c1-c1ccc(Cl)cc1Cl`: the Ki in test [1] was 251 nM (active); in [2] it was 1000 nM (active); in test [3] it was 398 nM (active); in test [4], > 2510 nM (inactive); in test [5], > 7940 nM (inactive); in [6], > 3160 nM (inactive). For the same compound, the Ki was 794 nM (active) in test [7]; > 3160 nM (inactive) in test [8]; > 10000 nM (inactive) in test [9]; 6.31 nM (active) in test [10]; 0.2 nM (active) in test [11]. Further, the pKi in test [1] is on record as 6.6; in [2], 6; in [3], 6.4; in test [7] it was 6.1; in test [10] it was 8.2; in [11], 9.7.

Take `NC(COc1cncc(-c2ccc3c(c2)C(=Cc2ccco2)C(=O)N3)c1)Cc1c[nH]c2ccccc12` (stereo not drawn): the Ki is 31.6 nM (active) in test [1]; 50.1 nM (active) in test [2]; 63.1 nM (active) in test [3]; 63.1 nM (active) in [4]; 398 nM (active) in test [5]; > 3160 nM (inactive) in test [6]. For the same compound, the Ki in test [7] was 1.26 nM (active); in test [8], 15.8 nM (active); in test [9], 1000 nM (active); in test [10], 63.1 nM (active); in test [11], 251 nM (active).

The values above are taken from ChEMBL document CHEMBL1201862, “PubChem BioAssay data set” (2004).
